Results as given in PMC9081329, “Pharmacokinetics, Mass Balance, Excretion, and Tissue Distribution of Plasmalogen Precursor PPI-1011” (Frontiers in Cell and Developmental Biology, 2022).

Test: Single dose tissue distribution study (QWBA, LSC of blood and plasma)
Type: in vivo, Sprague-Dawley rats
Procedure: Six male rats were administered a single oral dose of [^14C]PPI-1011 at 100 mg/kg (200 μCi/kg) and one rat was sacrificed at each of the following time points after the administration of the dose: 8, 12, 18, 24, 48, or 168 h. Terminal blood was collected by cardiac puncture directly into tubes with K2EDTA, an aliquot was stored at 4°C until LSC was performed for radioactivity, while the remaining blood was processed to plasma and stored at −20°C until LSC. Following blood collection, the carcasses were frozen in a cold bath with hexanes and dry ice for at least 8 min and then dried and stored at −70°C for at least 5 h. The carcasses were transferred to a −20°C freezer for at least 12 h before embedding.
QWBA was used to determine radioactivity concentrations in the caecum (contents and mucosa), large intestine (contents and mucosa), small intestine (contents and mucosa), stomach (contents and mucosa), brain, choroid plexus, spinal cord, bone, skin, adrenal gland, pineal body, pituitary gland, thyroid gland, liver, kidney (cortex, medulla and whole kidney), urinary bladder (contents and wall), brown fat, white fat, eye (lens, uveal tract and whole eye), epididymis, prostate gland, testis, ovary, uterus, lung, exorbital lachrymal gland, Harderian gland, pancreas, salivary gland, skeletal muscle, myocardium, cardiac blood, bone marrow, lymph node, spleen, and thymus. As well, LSC was used to determine the total radioactivity in the whole blood and plasma.
The whole-body cryosectioning technique described by ([Ullberg, 1977]) was the basis for embedding and cryosectioning the rats assigned to this study. Each frozen carcass was shaved, and then the limbs and tail were removed prior to embedding. Chilled (4°C) 3% CMC (low viscosity) was utilized to provide a firm support of reinforced ice around each rat and for a secure attachment to the microtome stage. Upon thorough freezing of the embedding medium surrounding each rat, the frozen CMC block was removed from the freezing bath and four 3/8 inch holes were drilled into the block. One cryosection quality control standard (CQCS) was prepared with a known amount of radioactivity and at least 1 ml aliquots were added to each of the four drilled holes. CQCS data were utilized to evaluate the overall performance of the QWBA assay.
Each frozen rat was sagittally trimmed (50–100 μm) at −20°C until exposure of a few target tissues employing a Leica Cryomacrocut heavy-duty microtome (Leica Microsystems Inc.,). Disposable stainless steel Feather type H45L knives (Feather Safety Razor Co., Ltd.) were utilized for trimming and sectioning each frozen rat. Several thinner sections (50 μm) were discarded prior to obtaining multiple 50 μm sections at various cryosectioning levels for QWBA analysis. Upon the collection of at least 60 target tissues in multiple cryosectioning levels, the cryosections were kept in the Cryomacrocut cryochamber for a minimum of 18 h for dehydration depending upon the number of cryosections within the cryochamber. After dehydration was complete, the cryosections were transferred to ambient temperature for processing. Mounted whole-body cryosections and a set of 15 standards were sandwiched between a standard phosphor screen and an exposure cassette. All cryosections were exposed to the phosphor screen for 4-days in a cabinet protected with lead prior to scanning using a Typhoon PhosphorImager (Cytiva). MCID™ Analysis software (InterFocus Ltd.) was utilized to generate a calibration curve of the STD nominal concentrations (nCi/g) versus PhosphorImager response (counts/μm^2 minus background) by weighted (1/x) linear regression analysis ([Potchoiba et al., 1995]; [Potchoiba et al., 1998]). The linear regression curve was then utilized to determine the concentration (nCi/g) of total radioactivity in whole-body tissues and blood. Radioactivity concentrations were expressed as μg Eq/g based on the specific activity of the compound in the final dose formulations. […]

[1] = 24 h post single oral 100 mg/kg
[2] = 48 h post single oral 100 mg/kg

SMILES: CC/C=C\C/C=C\C/C=C\C/C=C\C/C=C\C/C=C\CCC(=O)O[C@H](CO[14CH2]CCCCCCCCCCCCCCC)COC(=O)CCCCC1CCSS1 (stereo partly shown) [[^14C]PPI-1011]
- Radioactivity concentration, Choroid Plexus [1]: 9.85 μg equivalents/g
- Radioactivity concentration, Colliculus [1]: 2.06 μg equivalents/g
- Radioactivity concentration, Diaphragm [1]: 37.4 μg equivalents/g
- Radioactivity concentration, Epididymis [1]: 40.4 μg equivalents/g
- Radioactivity concentration, Esophagus [1]: 9.46 μg equivalents/g
- Radioactivity concentration, Exorbital Lacrimal Gland [1]: 9.66 μg equivalents/g
- Radioactivity concentration, Gastric Mucosa [1]: 48.7 μg equivalents/g
- Radioactivity concentration, Harderian Gland [1]: 10.5 μg equivalents/g
- Radioactivity concentration, Intra-Orbital Lacrimal Gland [1]: 7.56 μg equivalents/g
- Radioactivity concentration, Kidney [1]: 24.7 μg equivalents/g
- Radioactivity concentration, Large Intestines [1]: 180 μg equivalents/g
- Radioactivity concentration, Liver [1]: 73.4 μg equivalents/g
- Radioactivity concentration, Lung [1]: 30.2 μg equivalents/g
- Radioactivity concentration, Lymph Node [1]: 17.4 μg equivalents/g
- Radioactivity concentration, Medulla Oblongata [1]: 1.98 μg equivalents/g
- Radioactivity concentration, Muscle [1]: 7.57 μg equivalents/g
- Radioactivity concentration, Myocardium [1]: 31.0 μg equivalents/g
- Radioactivity concentration, Nasal Turbinates [1]: 4.81 μg equivalents/g
- Radioactivity concentration, Ocular - Uveal Tract [1]: 4.27 μg equivalents/g
- Radioactivity concentration, Ocular - Whole Eye [1]: 1.14 μg equivalents/g
- Radioactivity concentration, Olfactory Bulb [1]: 2.07 μg equivalents/g
- Radioactivity concentration, Pancreas [1]: 24.8 μg equivalents/g
- Radioactivity concentration, Parotid Gland [1]: 20.5 μg equivalents/g
- Radioactivity concentration, Pineal Gland [1]: 10.8 μg equivalents/g
- Radioactivity concentration, Pituitary Gland [1]: 16.7 μg equivalents/g
- Radioactivity concentration, Preputial Gland [1]: 112 μg equivalents/g
- Radioactivity concentration, Prostate [1]: 56.7 μg equivalents/g
- Radioactivity concentration, Renal Cortex [1]: 26.8 μg equivalents/g
- Radioactivity concentration, Renal Medulla [1]: 25.8 μg equivalents/g
- Radioactivity concentration, Salivary Gland [1]: 21.3 μg equivalents/g
- Radioactivity concentration, Seminal Vesicles [1]: 5.38 μg equivalents/g
- Radioactivity concentration, Skin - Non-Pigmented [1]: 9.26 μg equivalents/g
- Radioactivity concentration, Small Intestines [1]: 247 μg equivalents/g
- Radioactivity concentration, Spinal Cord [1]: 1.75 μg equivalents/g
- Radioactivity concentration, Spleen [1]: 46.3 μg equivalents/g
- Radioactivity concentration, Stomach [1]: 10.8 μg equivalents/g
- Radioactivity concentration, Testis [1]: 4.31 μg equivalents/g
- Radioactivity concentration, Thalamus [1]: 1.71 μg equivalents/g
- Radioactivity concentration, Thymus [1]: 9.79 μg equivalents/g
- Radioactivity concentration, Thyroid [1]: 27.7 μg equivalents/g
- Radioactivity concentration, Whole Brain [1]: 1.95 μg equivalents/g
- Radioactivity concentration, Adipose - Brown [2]: 132 μg equivalents/g
- Radioactivity concentration, Adipose - Brown (Vessel Wall) [2]: 98.6 μg equivalents/g
- Radioactivity concentration, Adipose - Subcutaneous [2]: 82.1 μg equivalents/g
- Radioactivity concentration, Adipose - Visceral [2]: 111 μg equivalents/g
- Radioactivity concentration, Adrenal Gland [2]: 201 μg equivalents/g
- Radioactivity concentration, Bladder Wall [2]: 10.7 μg equivalents/g
- Radioactivity concentration, Blood - QWBA [2]: 4.19 μg equivalents/g
- Radioactivity concentration, Bone Marrow [2]: 15.7 μg equivalents/g
- Radioactivity concentration, Bone Surface [2]: 0.508 μg equivalents/g
- Radioactivity concentration, Cecum [2]: 34.3 μg equivalents/g
- Radioactivity concentration, Cerebellum [2]: 2.60 μg equivalents/g
- Radioactivity concentration, Cerebrum [2]: 2.23 μg equivalents/g
- Radioactivity concentration, Choroid Plexus [2]: 14.4 μg equivalents/g
- Radioactivity concentration, Colliculus [2]: 3.30 μg equivalents/g
- Radioactivity concentration, Diaphragm [2]: 23.0 μg equivalents/g
- Radioactivity concentration, Epididymis [2]: 6.81 μg equivalents/g
- Radioactivity concentration, Esophagus [2]: 10.8 μg equivalents/g
- Radioactivity concentration, Exorbital Lacrimal Gland [2]: 6.13 μg equivalents/g
- Radioactivity concentration, Gastric Mucosa [2]: 37.5 μg equivalents/g
- Radioactivity concentration, Harderian Gland [2]: 11.1 μg equivalents/g
- Radioactivity concentration, Intra-Orbital Lacrimal Gland [2]: 6.64 μg equivalents/g
- Radioactivity concentration, Kidney [2]: 24.6 μg equivalents/g
- Radioactivity concentration, Large Intestines [2]: 19.1 μg equivalents/g
- Radioactivity concentration, Liver [2]: 40.0 μg equivalents/g
- Radioactivity concentration, Lung [2]: 22.9 μg equivalents/g
- Radioactivity concentration, Lymph Node [2]: 20.0 μg equivalents/g
- Radioactivity concentration, Medulla Oblongata [2]: 2.45 μg equivalents/g
- Radioactivity concentration, Muscle [2]: 8.42 μg equivalents/g
- Radioactivity concentration, Myocardium [2]: 26.6 μg equivalents/g
- Radioactivity concentration, Nasal Turbinates [2]: 5.03 μg equivalents/g
- Radioactivity concentration, Ocular - Uveal Tract [2]: 4.78 μg equivalents/g
- Radioactivity concentration, Ocular - Whole Eye [2]: 1.30 μg equivalents/g
- Radioactivity concentration, Olfactory Bulb [2]: 2.01 μg equivalents/g
- Radioactivity concentration, Pancreas [2]: 28.0 μg equivalents/g
- Radioactivity concentration, Parotid Gland [2]: 20.9 μg equivalents/g
- Radioactivity concentration, Pineal Gland [2]: 16.4 μg equivalents/g
- Radioactivity concentration, Pituitary Gland [2]: 19.2 μg equivalents/g
- Radioactivity concentration, Preputial Gland [2]: 76.5 μg equivalents/g
- Radioactivity concentration, Prostate [2]: 7.15 μg equivalents/g
- Radioactivity concentration, Renal Cortex [2]: 24.3 μg equivalents/g
- Radioactivity concentration, Renal Medulla [2]: 22.7 μg equivalents/g
- Radioactivity concentration, Salivary Gland [2]: 22.9 μg equivalents/g
- Radioactivity concentration, Seminal Vesicles [2]: 9.12 μg equivalents/g
- Radioactivity concentration, Skin - Non-Pigmented [2]: 13.4 μg equivalents/g
